Reference: US11083709B2, “Compounds, compositions, and methods of increasing CFTR activity” (Proteostasis Therapeutics, Inc., priority 2015, dated 2021)
Where a name gives a salt, the structure may show the parent alone.

Molecular target: T1, ΔF508-CFTR (Homo sapiens, UniProt P13569, DEL508-508)
T1 construct: primary lung epithelial cells (hBEs) homozygous for the Cystic Fibrosis-causing ΔF508 mutation; endogenous in cells; host or cells: primary lung epithelial cells (hBEs) homozygous for ΔF508
Assay: hBE equivalent current (Ieq) assay, primary lung epithelial cells homozygous for ΔF508
Type: cell-based
Conditions: compound alone run at 10 uM, relative to VX-809 at 1 uM; 24 h treatment
Method: Primary lung epithelial cells homozygous for the Cystic Fibrosis-causing ΔF508 mutation were differentiated for a minimum of 4 weeks in an air-liquid interface on Costar 24 well HTS filter plates prior to the equivalent current (Ieq) measurements. Cells were apically mucus-washed for 30 minutes 24h prior to treatment with compounds. The basolateral media was removed and replaced with media containing the compound of interest diluted to its final concentration from DMSO stocks. Treated cells were incubated at 37° C. and 5% CO2 for 24 hours. At the end of the treatment period, the media was changed to the Ieq experimental solution for 30 minutes before the experiment and plates are maintained in a CO2-free incubator during this period. The plates containing the cells were then placed in pre-warmed heating blocks at 36° C.±0.5 for 15 minutes before measurements are taken. The transepithelial voltage (VT) and conductance (GT) were measured using a custom 24 channel current clamp (TECC-24) with 24 well electrode manifold. The Ieq assay measurements were made following additions with standardized time periods: • 1. The baseline VT and GT values were measured for approximately 20 minutes. • 2. Benzamil was added to block ENaC for 15 minutes. • 3. Forskolin plus VX-770 (ivacaftor) were added to maximally activate ΔF508-CFTR for 27 minutes. • 4. Bumetanide was added to inhibit the NaK2Cl cotransporter and shut-off secretion of chloride.
The activity data captured was the area under the curve (AUC) for the traces of the equivalent chloride current. The AUC was collected from the time of the forskolin/VX-770 addition until the inhibition by bumetanide addition. Correction in response to compound treatment was scored as the increase in the AUC for compound-treated samples over that of vehicle-treated samples.
The results are shown below in Table 2. ++ indicates activity ≥25% run at 10 uM of VX-809 at 1 uM, + indicates activity 10 to <25% run at 10 uM of VX-809 at 1 uM, ** indicates activity ≥200% of VX-809 (1 uM) with compound at 10 uM and VX-809 at 1 uM; * indicates activity 100-200% of VX-809 (1 uM) with compound at 10 uM and VX-809 at 1 uM. ^## indicates activity ≥200% of VX-809 (3 uM) with compound at 10 uM and VX-809 at 3 uM; ^# indicates activity 100-200% of VX-809 (3 uM) with compound at 10 uM and VX-809 at 3 uM.

T1 sequence (P13569 with tags, fused parts or gaps DEL508-508): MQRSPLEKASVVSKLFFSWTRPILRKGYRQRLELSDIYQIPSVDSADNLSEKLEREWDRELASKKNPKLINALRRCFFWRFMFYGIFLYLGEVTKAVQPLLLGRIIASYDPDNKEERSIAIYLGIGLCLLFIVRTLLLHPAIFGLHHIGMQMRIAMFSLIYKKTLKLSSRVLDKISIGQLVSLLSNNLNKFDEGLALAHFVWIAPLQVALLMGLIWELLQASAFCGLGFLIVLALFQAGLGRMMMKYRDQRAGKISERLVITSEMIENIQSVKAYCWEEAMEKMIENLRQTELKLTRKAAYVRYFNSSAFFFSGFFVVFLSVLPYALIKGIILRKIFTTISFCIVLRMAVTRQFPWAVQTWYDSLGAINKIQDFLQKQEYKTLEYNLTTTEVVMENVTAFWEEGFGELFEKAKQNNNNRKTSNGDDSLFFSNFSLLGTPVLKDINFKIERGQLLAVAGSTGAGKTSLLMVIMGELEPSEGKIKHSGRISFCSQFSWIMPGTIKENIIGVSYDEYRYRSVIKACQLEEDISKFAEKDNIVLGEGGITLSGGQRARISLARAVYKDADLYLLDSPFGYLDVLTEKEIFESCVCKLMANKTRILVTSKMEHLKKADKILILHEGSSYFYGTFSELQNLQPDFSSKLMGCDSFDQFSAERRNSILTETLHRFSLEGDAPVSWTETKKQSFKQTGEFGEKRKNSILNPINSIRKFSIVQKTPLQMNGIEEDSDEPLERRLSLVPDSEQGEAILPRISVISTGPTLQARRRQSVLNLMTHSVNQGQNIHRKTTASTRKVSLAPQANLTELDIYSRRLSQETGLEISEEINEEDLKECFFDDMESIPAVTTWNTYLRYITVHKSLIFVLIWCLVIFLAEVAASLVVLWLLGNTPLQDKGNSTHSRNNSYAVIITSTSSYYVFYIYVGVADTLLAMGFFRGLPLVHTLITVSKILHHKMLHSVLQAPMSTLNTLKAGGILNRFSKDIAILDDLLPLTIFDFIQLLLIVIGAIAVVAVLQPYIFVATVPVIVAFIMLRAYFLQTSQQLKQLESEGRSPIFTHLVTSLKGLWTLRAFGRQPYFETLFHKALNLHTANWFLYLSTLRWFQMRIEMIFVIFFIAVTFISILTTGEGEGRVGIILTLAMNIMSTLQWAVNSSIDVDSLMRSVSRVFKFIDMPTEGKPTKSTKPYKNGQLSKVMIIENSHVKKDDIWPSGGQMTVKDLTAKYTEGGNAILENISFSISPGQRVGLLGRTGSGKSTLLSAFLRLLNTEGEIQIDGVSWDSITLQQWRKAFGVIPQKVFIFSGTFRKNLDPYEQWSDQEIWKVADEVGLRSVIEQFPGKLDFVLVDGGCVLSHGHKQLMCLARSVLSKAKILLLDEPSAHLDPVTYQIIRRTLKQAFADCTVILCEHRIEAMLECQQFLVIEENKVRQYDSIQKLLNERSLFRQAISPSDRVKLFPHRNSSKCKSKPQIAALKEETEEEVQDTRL

Q: Which “leq: activity relative to VX-809 (AUC of equivalent chloride current)” value does the source give for O=C(NCCCn1ccnc1)c1cc(-c2ccccc2)no1 [Example 4, N-(3-(1H-imidazol-1-yl)propyl)-3-phenylisoxazole-5-carboxamide] here?
A: Its value is “+ (+ indicates activity 10 to <25% run at 10 uM of VX-809 at 1 uM)”.

Q: How did the “leq: activity relative to VX-809 (AUC of equivalent chloride current)” value turn out when O=C(NC1CC1)c1cc(-c2ccccc2)co1 [Example 12, N-cyclopropyl-4-phenylfuran-2-carboxamide] was run?
A: Its value is “++ (++ indicates activity ≥25% run at 10 uM of VX-809 at 1 uM)”.

Q: For COCCNC(=O)c1cc(-c2ccccc2)no1 [Example 1, N-(2-methoxyethyl)-3-phenylisoxazole-5-carboxamide], which “leq: activity relative to VX-809 (AUC of equivalent chloride current)” value is on record?
A: Its value is “++ (++ indicates activity ≥25% run at 10 uM of VX-809 at 1 uM)”.

Q: How did the “leq: activity relative to VX-809 (AUC of equivalent chloride current)” value turn out when O=C(NCCN1CCOCC1)c1cc(-c2ccccc2)no1 [Example 3, N-(2-morpholinoethyl)-3-phenylisoxazole-5-carboxamide] was run?
A: Its value is “++ (++ indicates activity ≥25% run at 10 uM of VX-809 at 1 uM)”.

Q: Cn1nccc1CCCNC(=O)c1cc(-c2ccccc2)no1 [Example 7, N-(3-(1-methyl-1H-pyrazol-5-yl)propyl)-3-phenylisoxazole-5-carboxamide] was tested. Which “leq: activity relative to VX-809 (AUC of equivalent chloride current)” value did it give?
A: Its value is “++ (++ indicates activity ≥25% run at 10 uM of VX-809 at 1 uM)”.

Same assay, conditions: compound at 10 uM and VX-809 at 1 uM, relative to VX-809 (1 uM); 24 h treatment

Q: With C[C@@H](O)c1nnc([C@H]2C[C@H](NC(=O)c3onc(-c4ccccc4)c3F)C2)o1 [Example 50, 4-Fluoro-3-phenyl-N-[(1r,3r)-3-[5-[(1R)-1-hydroxyethyl]-1,3,4-oxadiazol-2-yl]cyclobutyl]-1,2-oxazole-5-carboxamide] as the compound, how does the “leq: activity of compound with VX-809, % of VX-809 (AUC of equivalent chloride current)” value read?
A: Its value is “* (* indicates activity 100-200% of VX-809 (1 uM) with compound at 10 uM and VX-809 at 1 uM)”.

Q: For O=C(N[C@H]1C[C@@H](n2nncc2CO)C1)c1cc(-c2ccccc2)no1 [Example 28, N-(cis-3-(5-(hydroxymethyl)-1H-1,2,3-triazol-1-yl)cyclobutyl)-3-phenylisoxazole-5-carboxamide], which “leq: activity of compound with VX-809, % of VX-809 (AUC of equivalent chloride current)” value is on record?
A: Its value is “** (** indicates activity ≥200% of VX-809 (1 uM) with compound at 10 uM and VX-809 at 1 uM)”.

Q: With O=C(N[C@H]1C[C@H](c2nnc(C3CS(=O)(=O)C3)o2)C1)c1cc(-c2ccccc2)no1 [Example 23, N-(trans-3-(5-(1,1-dioxidothietan-3-yl)-1,3,4-oxadiazol-2-yl)cyclobutyl)-3-phenylisoxazole-5-carboxamide] as the compound, how does the “leq: activity of compound with VX-809, % of VX-809 (AUC of equivalent chloride current)” value read?
A: Its value is “* (* indicates activity 100-200% of VX-809 (1 uM) with compound at 10 uM and VX-809 at 1 uM)”.

Q: Which “leq: activity of compound with VX-809, % of VX-809 (AUC of equivalent chloride current)” value does the source give for O=C(NC1CC1)c1cc(-c2ccccc2)co1 [Example 12, N-cyclopropyl-4-phenylfuran-2-carboxamide] here?
A: Its value is “* (* indicates activity 100-200% of VX-809 (1 uM) with compound at 10 uM and VX-809 at 1 uM)”.

Q: With O=C(NC1CC(c2nnc(C3COC3)o2)C1)c1cc(-c2ccccc2)no1 (stereo not drawn) [Example 22, N-trans-3-(5-(oxetan-3-yl)-1,3,4-oxadiazol-2-yl)cyclobutyl)-3-phenylisoxazole-5-carboxamide] as the compound, how does the “leq: activity of compound with VX-809, % of VX-809 (AUC of equivalent chloride current)” value read?
A: Its value is “* (* indicates activity 100-200% of VX-809 (1 uM) with compound at 10 uM and VX-809 at 1 uM)”.

Q: Which “leq: activity of compound with VX-809, % of VX-809 (AUC of equivalent chloride current)” value does the source give for CO[C@H](C)c1nnc([C@H]2C[C@H](NC(=O)c3cc(-c4ccccc4)no3)C2)o1 [Example 14, N-(trans-3-(5-((R)-1-methoxyethyl)-1,3,4-oxadiazol-2-yl)cyclobutyl)-3-phenylisoxazole-5-carboxamide] here?
A: The value was “* (* indicates activity 100-200% of VX-809 (1 uM) with compound at 10 uM and VX-809 at 1 uM)”.

Q: How did the “leq: activity of compound with VX-809, % of VX-809 (AUC of equivalent chloride current)” value turn out when CN1CC(c2nnc([C@H]3C[C@H](NC(=O)c4cc(-c5ccccc5)no4)C3)o2)C1 [Example 21, N-(trans-3-(5-(1-methylazetidin-3-yl)-1,3,4-oxadiazol-2-yl)cyclobutyl)-3-phenylisoxazole-5-carboxamide trifluoroacetate] was run?
A: Its value is “* (* indicates activity 100-200% of VX-809 (1 uM) with compound at 10 uM and VX-809 at 1 uM)”.

Q: Which “leq: activity of compound with VX-809, % of VX-809 (AUC of equivalent chloride current)” value does the source give for C[C@@H](O)c1nnc(C[C@H]2C[C@@H](NC(=O)c3cc(-c4cccs4)no3)C2)o1 [Example 45, N-[(1s,3s)-3-([5-[(1R)-1-Hydroxyethyl]-1,3,4-oxadiazol-2-yl]methyl)cyclobutyl]-3-(thiophen-2-yl)-1,2-oxazole-5-carboxamide] here?
A: Its value is “* (* indicates activity 100-200% of VX-809 (1 uM) with compound at 10 uM and VX-809 at 1 uM)”.

Q: For O=C(N[C@H]1C[C@@H](n2cc(CO)nn2)C1)c1cc(-c2ccccc2)no1 [Example 29, N-(cis-3-(4-(hydroxymethyl)-1H-1,2,3-triazol-1-yl)cyclobutyl)-3-phenylisoxazole-5-carboxamide], which “leq: activity of compound with VX-809, % of VX-809 (AUC of equivalent chloride current)” value is on record?
A: The value was “** (** indicates activity ≥200% of VX-809 (1 uM) with compound at 10 uM and VX-809 at 1 uM)”.

Q: CC(OCC(F)(F)F)c1nnc(C2CC(NC(=O)c3cc(-c4ccccc4)no3)C2)o1 (single isomer, unassigned) [Example 15] was tested. Which “leq: activity of compound with VX-809, % of VX-809 (AUC of equivalent chloride current)” value did it give?
A: Its value is “* (* indicates activity 100-200% of VX-809 (1 uM) with compound at 10 uM and VX-809 at 1 uM)”.

Q: C[C@@H](O)c1nnc(CC2CC(NC(=O)c3cc(-c4ccc(F)cc4)no3)C2)s1 (stereo partly drawn) [Example 43, 3-(4-Fluorophenyl)-N-[(1s,3s)-3-([5-[(1R)-1-hydroxyethyl]-1,3,4-thiadiazol-2-yl]methyl)cyclobutyl]-1,2-oxazole-5-carboxamide] was tested. Which “leq: activity of compound with VX-809, % of VX-809 (AUC of equivalent chloride current)” value did it give?
A: Its value is “** (** indicates activity ≥200% of VX-809 (1 uM) with compound at 10 uM and VX-809 at 1 uM)”.

Q: How did the “leq: activity of compound with VX-809, % of VX-809 (AUC of equivalent chloride current)” value turn out when O=C(N[C@H]1C[C@H](c2nnc(C3CN(CC4CCC4)C3)o2)C1)c1cc(-c2ccccc2)no1 [Example 27, N-(trans-3-(5-(1-(cyclobutylmethyl)azetidin-3-yl)-1,3,4-oxadiazol-2-yl)cyclobutyl)-3-phenylisoxazole-5-carboxamide] was run?
A: The value was “* (* indicates activity 100-200% of VX-809 (1 uM) with compound at 10 uM and VX-809 at 1 uM)”.

Q: With CC(OC1CCC1)c1nnc([C@H]2C[C@H](NC(=O)c3cc(-c4ccccc4)no3)C2)o1 (relative stereo) [Example 17, N-(trans-3-(5-(1-cyclobutoxyethyl)-1,3,4-oxadiazol-2-yl)cyclobutyl)-3-phenylisoxazole-5-carboxamide] as the compound, how does the “leq: activity of compound with VX-809, % of VX-809 (AUC of equivalent chloride current)” value read?
A: The value was “* (* indicates activity 100-200% of VX-809 (1 uM) with compound at 10 uM and VX-809 at 1 uM)”.

Q: With C[C@@H](O)c1nnc([C@H]2C[C@H](NC(=O)c3cc(-c4ccc(F)cc4)no3)C2)o1 [Example 36, 3-(4-fluorophenyl)-N-(trans-3-(5-((R)-1-hydroxyethyl)-1,3,4-oxadiazol-2-yl)cyclobutyl)isoxazole-5-carboxamide] as the compound, how does the “leq: activity of compound with VX-809, % of VX-809 (AUC of equivalent chloride current)” value read?
A: The value was “* (* indicates activity 100-200% of VX-809 (1 uM) with compound at 10 uM and VX-809 at 1 uM)”.

Q: C[C@@H](OCC1CN(C)C1)c1nnc([C@H]2C[C@H](NC(=O)c3cc(-c4ccccc4)no3)C2)o1 [Example 20, N-(trans-3-(5-((R)-1-((1-methylazetidin-3-yl)methoxy)ethyl)-1,3,4-oxadiazol-2-yl)cyclobutyl)-3-phenylisoxazole-5-carboxamide] was tested. Which “leq: activity of compound with VX-809, % of VX-809 (AUC of equivalent chloride current)” value did it give?
A: The value was “* (* indicates activity 100-200% of VX-809 (1 uM) with compound at 10 uM and VX-809 at 1 uM)”.

Q: Which “leq: activity of compound with VX-809, % of VX-809 (AUC of equivalent chloride current)” value does the source give for C[C@@H](O)c1nnc(C[C@H]2C[C@H](NC(=O)c3cc(-c4cccs4)no3)C2)o1 [Example 46, N-[(1r,3r)-3-([5-[(1R)-1-Hydroxyethyl]-1,3,4-oxadiazol-2-yl]methyl)cyclobutyl]-3-(thiophen-2-yl)-1,2-oxazole-5-carboxamide] here?
A: Its value is “* (* indicates activity 100-200% of VX-809 (1 uM) with compound at 10 uM and VX-809 at 1 uM)”.

Q: With C[C@@H](O)c1nnc(CC2CC(NC(=O)c3cc(-c4ccccc4)no3)C2)o1 (stereo partly drawn) [Example 37, N-((1S,3s)-3-((5-((R)-1-hydroxyethyl)-1,3,4-oxadiazol-2-yl)methyl)cyclobutyl)-3-phenylisoxazole-5-carboxamide] as the compound, how does the “leq: activity of compound with VX-809, % of VX-809 (AUC of equivalent chloride current)” value read?
A: Its value is “** (** indicates activity ≥200% of VX-809 (1 uM) with compound at 10 uM and VX-809 at 1 uM)”.

Q: For CN1CCC(N2CC(c3nnc(C4CC(NC(=O)c5cc(-c6ccccc6)no5)C4)o3)C2)CC1 (stereo not drawn) [Example 24, N-cis-(3-(5-(1-(1-methylpiperidin-4-yl)azetidin-3-yl)-1,3,4-oxadiazol-2-yl)cyclobutyl)-3-phenylisoxazole-5-carboxamide], which “leq: activity of compound with VX-809, % of VX-809 (AUC of equivalent chloride current)” value is on record?
A: The value was “* (* indicates activity 100-200% of VX-809 (1 uM) with compound at 10 uM and VX-809 at 1 uM)”.

Q: With Cn1nccc1CCCNC(=O)c1cc(-c2ccccc2)no1 [Example 7, N-(3-(1-methyl-1H-pyrazol-5-yl)propyl)-3-phenylisoxazole-5-carboxamide] as the compound, how does the “leq: activity of compound with VX-809, % of VX-809 (AUC of equivalent chloride current)” value read?
A: The value was “* (* indicates activity 100-200% of VX-809 (1 uM) with compound at 10 uM and VX-809 at 1 uM)”.
